Earlier results, collected in patent US20140106010A1, “Blend of Green and Black Extracts for the Promotion of Health Benefits” (Kemin Industries, Inc., priority 2012, published 2014).

What was measured:
ERK1 and ERK2 = conditions: TRAMP mice, 0.06% EGCG in drinking water, dorsolateral and ventral prostate
[1] = tested on: prostate tissue of C57BL/6 mice; conditions: 2 weeks decaffeinated black tea extract at 50 mg/g diet

| greater relative absorption into the prostate compared to EGCG [1] [%] | Compound | decreased phosphorylation of ERK1 and ERK2 (ERK1 and ERK2) |
| --- | --- | --- |
|  | epigallocatechin-3-gallate [EGCG] | about 50% |
| 70 | O=c1c(O)cc([C@H]2Oc3cc(O)cc(O)c3C[C@H]2O)cc2c([C@H]3Oc4cc(O)cc(O)c4C[C@H]3O)cc(O)c(O)c12 [theaflavin] |  |
